Assay results published in patent publication US20120202814A1, “COMPOUNDS WITH DDX3 INHIBITORY ACTIVITY AND USES THEREOF” (UNIVERSITÀ DEGLI STUDI DI SIENA, priority 2009, published 2012).
Like-named read-outs stand apart in the source and are kept apart here.

How the values were obtained:
[1] = biological target: T1, human DDX3 (helicase activity) (Homo sapiens, UniProt O00571); assay: Human DDX3 helicase activity assay (ds to ss nucleic acid unwinding); assay type: biochemical; conditions: for IC50: anti-helicase activity, na = not active, read-out: Helicase ID50; for fold higher potency against the helicase with respect to the ATPase activity: helicase versus ATPase ID50; for fold improvement in anti-helicase activity with respect to EI01: ratio of helicase ID50
T1 construct: made in house
T1 sequence (O00571 whole entry): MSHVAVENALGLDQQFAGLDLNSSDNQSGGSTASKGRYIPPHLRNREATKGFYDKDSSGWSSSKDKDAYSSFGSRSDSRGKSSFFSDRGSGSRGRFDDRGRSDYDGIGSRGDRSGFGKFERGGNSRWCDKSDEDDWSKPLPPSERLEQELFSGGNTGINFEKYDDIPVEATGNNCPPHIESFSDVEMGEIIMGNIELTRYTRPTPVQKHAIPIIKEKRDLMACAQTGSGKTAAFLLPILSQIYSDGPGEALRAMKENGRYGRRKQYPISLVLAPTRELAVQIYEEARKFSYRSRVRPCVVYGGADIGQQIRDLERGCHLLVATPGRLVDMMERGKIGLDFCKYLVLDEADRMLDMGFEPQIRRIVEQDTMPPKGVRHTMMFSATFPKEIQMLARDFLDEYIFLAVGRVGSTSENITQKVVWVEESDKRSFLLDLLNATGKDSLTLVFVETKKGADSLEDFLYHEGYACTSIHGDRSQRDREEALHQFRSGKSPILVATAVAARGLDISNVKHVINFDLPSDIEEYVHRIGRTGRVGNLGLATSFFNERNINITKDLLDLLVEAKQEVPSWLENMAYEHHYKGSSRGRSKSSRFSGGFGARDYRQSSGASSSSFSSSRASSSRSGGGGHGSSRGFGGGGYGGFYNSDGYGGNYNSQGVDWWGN
Protocol: The helicase activity of DDX3 wt and mutant forms was monitored by measuring the conversion of a double stranded (ds) DNA or RNA (labelled at the 5′-end of one strand with a 6-FAM fluorescent group or P^32, respectively) into single stranded (ss) nucleic acid. Reactions were performed in 50 mM TrisHCl pH 7.5, 1 mM DTT, 0.2 mg/ml BSA, 5% glycerol and 100 μM ATP, 10 mM MgCl2 at 37° C. degrees for 10′ and stopped by adding EDTA 50 mM pH 8. Products were separated through non-denaturating 8% PAGE at 5 W for 2 hours in TBE buffer at 4° C. Substrates and products were quantified by laser scanning densitometry (Thyphoon-TRIO, GE Healthcare).
(§1) Human recombinant DDX3 was cloned, expressed and purified as described (Franca et al. Proteins 2007, 67, 1128-37).
Compounds were obtained by application of a virtual docking protocol on the RNA-binding site identified in the homology model developed in the present invention. These compounds were commercially available (EI-compounds in Table 4). A few other compounds (25-31, EXAMPLE 6) were rationally designed to target the above mentioned RNA-binding site and then synthesized. All the compounds were tested for anti-helicase activity.

[2] = biological target: T2, human DDX3 (ATPase activity) (Homo sapiens, UniProt O00571); assay: Human DDX3 ATPase activity assay (luciferase-based luminescence); assay type: biochemical; conditions: for Ki: DDX3 ATPase activity, read-out: Ki (μM), apparent equilibrium dissociation constant for the inhibitor to the target enzyme DDX3; for IC50: ATPase activity, read-out: ATPase ID50
T2 construct: made in house; host or cells: E. coli
T2 sequence (O00571 whole entry): as above
Protocol: ATPase activity was tested with a luciferase-based luminescence assay (Easylite-Kinase, Perkin Elmer) on 96 wells microtiter plates. Briefly, recombinant purified human DDX3 (50-100 ng) was incubated in a 15 μL total reaction volume with reaction buffer (25 mM TrisHCl pH 7.5, 5 mM MgCl2), in the presence of increasing amounts of ATP and/or different combinations of ATP and the inhibitor to be tested. Reference curves in the absence of inhibitor (giving the 100% of enzymatic activity) and in the absence of enzyme (giving the baseline), were also included in each experiment. Reading was performed with a Microbeta Trilux (Perkin Elmer) luminometer, according to the manufacturer's protocol.
ATPase reactions were performed as described, in the presence of increasing amounts of inhibitor and variable ATP concentrations. Variations of the initial velocities of the reaction as a function of ATP concentrations in the absence or presence of 4 were analyzed with the equation: […]
Variation of the % inhibition as a function of compound FE15 at different ATP concentrations were fitted to the equation for cooperative binding: […]
where Vmax is the apparent maximal rate of the reaction in the absence of the inhibitor, [I] is the variable inhibitor concentration, n is the cooperativity index and Ki(app) is the apparent inhibition constant. Comparatively, fitting was done with the same Eq. (2) where n was kept fixed at the value of 1 (non-cooperativity hypothesis). F test was used to compare the two fittings and p value was calculated.
as §1
The anti-DDX3 activity of the compounds of the invention was evaluated by in vitro ATPase activity assay using the recombinant human DDX3 protein produced in E. coli. The potency of inhibition (Ki) for each molecule was calculated, representing the concentration of the inhibitor able to reduce the DDX3 ATPase activity by 50%

[3] = test system: cervical cancer HeLa cell line; assay: Antiproliferative activity against HeLa cells (CellTiter viability assay); assay type: cell-based; conditions: Homo sapiens
Protocol: (§2) Selected compounds from Table 1 were tested against the cervical cancer HeLa cell line for antiproliferative activity. Cell viability was measured with the CellTiter viability assay (Table 2). Table 3 lists the calculated antiproliferative potencies (EC50, dose required to suppress 50% of cell viability) for a series of representative compounds of the invention.

MOLT-4 = assay: Cell viability / cytotoxicity on MOLT-4 cells; assay type: cell-based; conditions: MOLT-4 CC50 / antiviral EC50
Description: (§3) Cell viability in the presence of the compounds has been determined by standard MTT assays.

[4] = Cell viability / cytotoxicity on MOLT-4 cells; assay type: cell-based; conditions: human, MOLT-4 cells; MOLT-4; Table 2 prints no unit; read-out: Cytotoxicity (CC50) MOLT-4, dose required to reduce 50% cell vitality
Description: as §3

HIV-1 = assay: Antiviral assay, HIV-1 replication in infected PBMCs (viral RNA in supernatant); assay type: cell-based; conditions: for EC50: Human immunodeficiency virus 1, PBMC
Protocol: FIG. 1. A) Antiviral activity (expressed as % of viral load with respect to the control) of compounds FE56 and FE66 at 0.3 μM and 3 μM doses against single round HIV-1 replication in HeLaCD4+ cells infected with a wild type HIV-1 strain. Measurements were performed at 72 h post infection. B) Antiviral activity of compounds FE15 and FE66 on HIV-1 replication in phytohemagglutinin-stimulated peripheral blood mononuclear cells (PBMCs) […] with HeLa CD4^+-cell culture supernatants containing wild type HIV. Compounds were tested at 50 μM (FE15) and 5 μM (FE66). The HIV-1 RNA was quantified in the cell culture supernatant after 3, and 5 days of incubation. Results are expressed as HIV RNA copies/ml. Control (white bars).
FIG. 2. Antiviral activity of DDX3 inhibitors. A) Comparison of the antiviral activity (expressed as % of viral RNA with respect to the control) on infected PBMCs of a fixed dose of selected inhibitors. Measurements were performed at 72 h post infection. Values are the means of three independent replicates. Error bars are ±SD. White bars: control without drugs; dark grey bar: positive control with AZT (0.01 μM); black bar: first generation inhibitor FE15 (50 μM); light grey bars: second generation DDX3 inhibitors FE66, 11d and 38 (3 μM). B) Dose-response curves for the inhibiton of HIV-1 replication (expressed as % of viral RNA with respect to the control) in infected PBMCs by FE15 (circles) and 38 (triangles). Measurements were performed at 72 h post infection. Values are the means of three independent replicates. Error bars are ±SD.
In detail, 0.5 μg of each HIV-1 plasmid construct was transfected into CD4 HeLa cells by using the lipofectin reagent, according to the recommendations of the manufacturer (Invitrogen, Groningen, The Netherlands). After 3 days of incubation at 37° C., the cell supernatants, which contained reconstituted viable recombinant viruses, were collected. Quantification of the newly produced recombinant strains was obtained by determination of the HIV RNA copy number in the cell culture supernatants. Successively, 10 ml of transfected HeLa CD4^+-cell culture supernatants containing wild-type, and mutated recombinant HIV strain […], was used to infect aliquots of 10×10^6 phytohemagglutinin-stimulated peripheral blood mononuclear cells (PBMCs) from HIV-seronegative blood donors. After 4 h of incubation, supernatants were removed and infected PBMCs were incubated at 37° C. in 10 ml of RPMI 1640 medium (Eurobio, Les Ulis Cedex B, France) supplemented with 20% fetal calf serum (Life Technologies, Ltd., Paisley, Scotland), 2 mM l-glutamine, 100 U of penicillin per ml, 100 μg of streptomycin per ml, 10% interleukin-2 (ZeptoMetrix Co., Buffalo, N.Y.), 5 μg of hydrocortisone (Sigma Chemical Co.) per ml and with fourfold dilutions of antiretroviral drugs. No-drug controls for each drug dilution were included in each assay. After 3, 5 and 7 days of incubation the HIV-1 RNA in the cell culture supernatant was quantified. Recombinant HIV-1 strains from treatment-naive patients and multidrug resistance-associated changes were assayed in parallel. The degree of inhibition of viral replication was measured by determining the HIV-1 RNA level in the supernatants of cell cultures and was expressed as the fold increase in the 50% inhibitory concentrations (IC50s) for resistant recombinant HIV-1 variants compared with the IC50s for the wild-type recombinant variant. Each test was performed in triplicate.

[5] = Cell viability / cytotoxicity on PBMCs; assay type: cell-based; conditions: human; PBMCs; Table 2 prints no unit; read-out: Cytotoxicity (CC50) PBMCs, dose required to reduce 50% cell vitality
Description: as §3

PBMCs = assay: Cell viability / cytotoxicity on PBMCs; assay type: cell-based; conditions: PBMCs CC50 / antiviral EC50
Description: as §3

HeLa cells = assay: Cell viability / cytotoxicity on HeLa cells; assay type: cell-based; conditions: HeLa CC50 / antiviral EC50
Protocol: as §3, §2

[6] = Cell viability / cytotoxicity on HeLa cells; assay type: cell-based; conditions: human, HeLa cells (cervical cancer cell line); HeLa; Table 2 prints no unit; text gives μM; read-out: Cytotoxicity (CC50) HeLa, dose required to reduce 50% cell vitality
Protocol: as §3, §2

[7] = 48 hours, read-out: EC50 (μM) 48 hours, dose required to suppress 50% of cell viability
[8] = 72 hours, read-out: EC50 (μM) 72 hours, dose required to suppress 50% of cell viability
[9] = read-out: Antiviral activity, dose required to reduce 50% viral proliferation (measured as viral RNA load)
[10] = 72 h, read-out: EC50, anti-HIV activity

SMILES | IC50 [1] [µM] | Ki [2] [µM] | EC50 [3, 7] [µM] | EC50 [3, 8] [µM] | also measured
O=C(Nc1cccc(C(=O)Nc2ccccc2Cl)c1)Nc1ccccc1Cl [EI-01B] | 1300 |  |  |  | 
CCN(CC)c1nc(NCc2ccccc2)nc(N/N=C/c2ccccc2O)n1 [Compound 15k, (E)-2-((2-(4-(benzylamino)-6-(diethylamino)-1,3,5-triazin-2-yl)hydrazono)methyl)phenol] |  | 0.5 | 3 | 1 | 
Cc1ccccc1NC(=O)Nc1cccc(NC(=O)Nc2ccccc2C)c1 [EI-01] | 250 |  |  |  | IC50 [2]: 245 µM; fold higher potency against the helicase with respect to the ATPase activity [1]: did not discriminate between ATPase and helicase activities
O=C(Nc1cccc([N+](=O)[O-])c1)Nc1cccc([N+](=O)[O-])c1 [Compound 29, 1,3-bis(3-nitrophenyl)urea] | 52 |  |  |  | 
CC(=O)Nc1ccc(/C(C)=N/Nc2nc(Nc3ccccc3)nc(Nc3ccccc3)n2)cc1 [FE-56F] |  | 0.3 | 10 | 5 | 
Cc1ccccc1NC(=O)Nc1cccc([N+](=O)[O-])c1 [Compound 25, 1-(3-nitrophenyl)-3-o-tolylurea] |  |  |  |  | IC50 [2]: 11 µM; fold higher potency against the helicase with respect to the ATPase activity [1]: 11 fold; fold improvement in anti-helicase activity with respect to EI01 [1]: 245 fold
CCN(CC)c1nc(NCc2ccccc2)nc(N/N=C2/C(=O)Nc3ccccc32)n1 [Compound 14g, (E)-3-(2-(4-(benzylamino)-6-(diethylamino)-1,3,5-triazin-2-yl)hydrazono)indolin-2-one] |  | 0.1 | 10 | 10 | 
Oc1ccccc1/C=N/Nc1nc(Nc2ccc(F)cc2)nc(N2CCOCC2)n1 [Compound 16c] |  |  |  |  | Selectivity index MOLT-4, CC50/EC50 (MOLT-4): 2.0; CC50 [4]: 5 ± 1 µM; EC50 (HIV-1; [9]): 2.5 ± 0.1 µM; CC50 [5]: 10 ± 1 µM; Selectivity index PBMCs, CC50/EC50 (PBMCs): 4.0; Selectivity index HeLa, CC50/EC50 (HeLa cells): 1.0; CC50 [6]: 2.5 ± 0.3 µM
Cc1ccccc1NC(=O)Nc1cccc(NC(=O)Nc2cccc(NC(=O)Nc3ccccc3C)c2)c1 [Compound 31, 1,3-bis(3-{[(2-methylphenyl)carbamoyl]amino}phenyl)urea] | 1300 |  |  |  | 
Cc1ccccc1NC(=O)Nc1cccc(N)c1 [Compound 26, 1-(3-aminophenyl)-3-o-tolylurea] | 5.7 |  |  |  | fold improvement in anti-helicase activity with respect to EI01 [1]: 43 fold
Oc1ccccc1/C=N/Nc1nc(Nc2ccc(F)cc2)nc(Nc2ccc(F)cc2)n1 [Compound 38, (E)-2-((2-(4,6-bis(4-Fluorophenylamino)-1,3,5-triazin-2-yl)hydrazono)methyl)phenol] |  | 0.1 |  |  | Selectivity index MOLT-4, CC50/EC50 (MOLT-4): 5.0; CC50 [4]: 10 ± 1 µM; fold higher antiviral potency than the inhibitor FE15 (HIV-1; HIV-1 infected PBMCs, ratio of EC50): 41 fold; EC50 (HIV-1; [10]): 2 µM; EC50 (HIV-1; [9]): 2 ± 0.2 µM; CC50 [5]: 8 ± 0.5 µM; Selectivity index PBMCs, CC50/EC50 (PBMCs): 4.0; Selectivity index HeLa, CC50/EC50 (HeLa cells): 10; CC50 [6]: 20 ± 2 µM
Cc1[nH]c2ccccc2c1/C=N/Nc1nc(Nc2ccc(F)cc2)nc(N2CCOCC2)n1 [FE-56M] |  | 0.2 | 10 | 5 | 
Cc1ccc(NC(=O)c2cccc(NC(=O)Nc3cccc(C)c3C)c2)cc1C [EI-01A] | 131 |  |  |  | 
Nc1cccc(NC(=O)Nc2cccc(N)c2)c1 [Compound 30, 1,3-bis(3-aminophenyl)urea] | 24 |  |  |  | 
COc1ccc(Nc2nc(NCc3ccco3)nc(N/N=C/c3cc([N+](=O)[O-])ccc3O)n2)cc1 [FE-56A] |  | 31.7 | 8 | 4 | 
Oc1ccccc1/C=N/Nc1nc(Nc2ccc(F)cc2)nc(N2CCOCC2)n1 [Compound 11d, (E)-2-((2-(4-(4-Fluorophenylamino)-6-morpholino-1,3,5-triazin-2-yl)hydrazono)methyl)phenol] |  | 0.4 |  |  | EC50 (HIV-1; [10]): 2.5 µM; melting point: 234 °C
Clc1ccc(-c2ccc(/C=N/Nc3nc(Nc4ccccc4)nc(N4CCCCC4)n3)o2)cc1 [FE-56N] |  | 0.4 | 25 | 4 | 
